Reference: PMC12527922, “Cocaine chemogenetics blunts drug-seeking by synthetic physiology” (Nature, 2025)
Read-outs that look alike come from different tables or passages of the source.

Columns and labels:
Assay in all cases: cell-based
Type in all cases: cell-based, human α7 nAChR LBD, mouse 5HT3 IPD
[1] = molecular target: α7–5HT3 mutant chimeric channels (Homo sapiens, UniProt P36544, Q79A)
[2] = molecular target: α7–5HT3 mutant chimeric channels (Homo sapiens, UniProt P36544, S170N)
[3] = molecular target: α7–5HT3 mutant chimeric channels (Homo sapiens, UniProt P36544, L141S)
[4] = molecular target: α7–5HT3 mutant chimeric channels (Homo sapiens, UniProt P36544, S170Y)
[5] = molecular target: α7–5HT3 mutant chimeric channels (Homo sapiens, UniProt P36544, S170H)
[6] = molecular target: α7–5HT3 mutant chimeric channels (Homo sapiens, UniProt P36544, Q139M)
[7] = molecular target: α7–5HT3 mutant chimeric channels (Homo sapiens, UniProt P36544, Q139P)
[8] = molecular target: α7–5HT3 mutant chimeric channels (Homo sapiens, UniProt P36544, Q139V)
[9] = molecular target: α7–5HT3 mutant chimeric channels (Homo sapiens, UniProt P36544, S170G)
[10] = molecular target: α7–5HT3 mutant chimeric channels (Homo sapiens, UniProt P36544, L141A)
[11] = molecular target: α7–5HT3 mutant chimeric channels (Homo sapiens, UniProt P36544, S170T)
[12] = molecular target: α7–5HT3 mutant chimeric channels (Homo sapiens, UniProt P36544, S172L)
[13] = molecular target: α7–5HT3 mutant chimeric channels (Homo sapiens, UniProt P36544, S172V)
[14] = molecular target: α7–5HT3 mutant chimeric channels (Homo sapiens, UniProt P36544, S170L)
[15] = molecular target: α7–5HT3 mutant chimeric channels (Homo sapiens, UniProt P36544, Q139F)
[16] = molecular target: α7–5HT3 mutant chimeric channels (Homo sapiens, UniProt P36544, W77Y)
[17] = molecular target: α7–5HT3 mutant chimeric channels (Homo sapiens, UniProt P36544, Q139K)
[18] = molecular target: α7–5HT3 mutant chimeric channels (Homo sapiens, UniProt P36544, S172K)
[19] = molecular target: α7–5HT3 mutant chimeric channels (Homo sapiens, UniProt P36544, S170W)
[20] = molecular target: α7–5HT3 mutant chimeric channels (Homo sapiens, UniProt P36544, L141P)
[21] = molecular target: α7–5HT3 mutant chimeric channels (Homo sapiens, UniProt P36544, S170E)
[22] = molecular target: α7–5HT3 mutant chimeric channels (Homo sapiens, UniProt P36544, S170Q)
[23] = molecular target: α7–5HT3 mutant chimeric channels (Homo sapiens, UniProt P36544, L141G)
[24] = molecular target: α7–5HT3 mutant chimeric channels (Homo sapiens, UniProt P36544, W77F)
[25] = molecular target: α7–5HT3 mutant chimeric channels (Homo sapiens, UniProt P36544, Q139L)
[26] = molecular target: α7–5HT3 mutant chimeric channels (Homo sapiens, UniProt P36544, Q139R)
Chain of α7–5HT3 mutant chimeric channels (Homo sapiens, UniProt P36544, Q139R) (P23979 242-489): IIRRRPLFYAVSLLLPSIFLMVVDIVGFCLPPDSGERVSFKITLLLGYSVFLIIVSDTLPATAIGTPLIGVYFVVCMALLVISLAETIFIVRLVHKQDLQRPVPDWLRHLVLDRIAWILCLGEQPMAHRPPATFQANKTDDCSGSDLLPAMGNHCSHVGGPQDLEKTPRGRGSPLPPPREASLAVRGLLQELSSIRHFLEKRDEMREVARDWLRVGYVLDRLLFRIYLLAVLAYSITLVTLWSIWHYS
Chain of α7–5HT3 mutant chimeric channels (Homo sapiens, UniProt P36544, Q139R) (P36544 23-224 Q139R): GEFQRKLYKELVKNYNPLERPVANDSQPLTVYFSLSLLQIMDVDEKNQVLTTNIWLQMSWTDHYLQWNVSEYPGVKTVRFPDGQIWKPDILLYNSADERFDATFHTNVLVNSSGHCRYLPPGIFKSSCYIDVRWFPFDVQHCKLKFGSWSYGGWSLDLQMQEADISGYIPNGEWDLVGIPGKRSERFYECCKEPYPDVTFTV

Chain of α7–5HT3 mutant chimeric channels (Homo sapiens, UniProt P36544, Q139L) (P36544 23-224 Q139L): as the sequence (P36544 23-224 Q139R) above, with R117L counted along it
Chain of α7–5HT3 mutant chimeric channels (Homo sapiens, UniProt P36544, Q139L) (P23979 242-489, further chain): as the sequence (P23979 242-489) above
Chain of α7–5HT3 mutant chimeric channels (Homo sapiens, UniProt P36544, Q139M) (P36544 23-224 Q139M): as the sequence (P36544 23-224 Q139R) above, with R117M counted along it
Chain of α7–5HT3 mutant chimeric channels (Homo sapiens, UniProt P36544, Q139M) (P23979 242-489, further chain): as the sequence (P23979 242-489) above
Chain of α7–5HT3 mutant chimeric channels (Homo sapiens, UniProt P36544, Q139F) (P36544 23-224 Q139F): as the sequence (P36544 23-224 Q139R) above, with R117F counted along it
Chain of α7–5HT3 mutant chimeric channels (Homo sapiens, UniProt P36544, Q139F) (P23979 242-489, further chain): as the sequence (P23979 242-489) above
Chain of α7–5HT3 mutant chimeric channels (Homo sapiens, UniProt P36544, L141P) (P36544 23-224 L141P): as the sequence (P36544 23-224 Q139R) above, with R117Q, L119P counted along it
Chain of α7–5HT3 mutant chimeric channels (Homo sapiens, UniProt P36544, L141P) (P23979 242-489, further chain): as the sequence (P23979 242-489) above
Chain of α7–5HT3 mutant chimeric channels (Homo sapiens, UniProt P36544, W77Y) (P36544 23-224 W77Y): as the sequence (P36544 23-224 Q139R) above, with W55Y, R117Q counted along it
Chain of α7–5HT3 mutant chimeric channels (Homo sapiens, UniProt P36544, W77Y) (P23979 242-489, further chain): as the sequence (P23979 242-489) above
Chain of α7–5HT3 mutant chimeric channels (Homo sapiens, UniProt P36544, Q139P) (P23979 242-489): as above
Chain of α7–5HT3 mutant chimeric channels (Homo sapiens, UniProt P36544, Q139P) (P36544 23-224 Q139P): as the sequence (P36544 23-224 Q139R) above, with R117P counted along it
Chain of α7–5HT3 mutant chimeric channels (Homo sapiens, UniProt P36544, Q79A) (P23979 242-489): as the sequence (P23979 242-489) above
Chain of α7–5HT3 mutant chimeric channels (Homo sapiens, UniProt P36544, Q79A) (P36544 23-224 Q79A): as the sequence (P36544 23-224 Q139R) above, with Q57A, R117Q counted along it
Chain of α7–5HT3 mutant chimeric channels (Homo sapiens, UniProt P36544, Q139K) (P23979 242-489): as the sequence (P23979 242-489) above
Chain of α7–5HT3 mutant chimeric channels (Homo sapiens, UniProt P36544, Q139K) (P36544 23-224 Q139K): as the sequence (P36544 23-224 Q139R) above, with R117K counted along it
Chain of α7–5HT3 mutant chimeric channels (Homo sapiens, UniProt P36544, Q139V) (P23979 242-489): as the sequence (P23979 242-489) above
Chain of α7–5HT3 mutant chimeric channels (Homo sapiens, UniProt P36544, Q139V) (P36544 23-224 Q139V): as the sequence (P36544 23-224 Q139R) above, with R117V counted along it

COC(=O)[C@H]1[C@@H](OC(=O)c2ccccc2)C[C@@H]2CC[C@H]1N2C [cocaine]
EC50 [1]: > 30 µM
EC50 ([1]; read-out: EC50 at a7 5HT3 Q79A, sheet 1d, single determinations): > 30 µM
EC50 [2]: > 30 µM
EC50 [3]: > 30 µM
EC50 ([3]; read-out: EC50 at α75HT3 L141S, sheet 1d, single determinations): > 30 µM
EC50 [4]: > 30 µM
EC50 [5]: > 30 µM
EC50 [6]: > 30 µM
EC50 ([6]; read-out: EC50 at a7 5HT3 Q139M, Avg, sheet 1d, Avg): > 30 µM
EC50 [7]: > 30 µM
EC50 ([7]; read-out: EC50 at a7 5HT3 Q139P, Avg, sheet 1d, Avg): > 30 µM
EC50 [8]: > 30 µM
EC50 ([8]; read-out: EC50 at a7 5HT3 Q139V, Avg, sheet 1d, Avg): > 30 µM
EC50 [9]: > 30 µM
EC50 [10]: 3.5 µM
EC50 [11]: > 30 µM
EC50 [12]: > 30 µM
EC50 [13]: > 30 µM
EC50 [14]: 6 µM
EC50 [15]: > 30 µM
EC50 ([15]; read-out: EC50 at a7 5HT3 Q139F, Avg, sheet 1d, Avg): > 30 µM
EC50 [16]: > 30 µM
EC50 ([16]; read-out: EC50 at a7 5HT3 W77Y, Avg, sheet 1d, Avg): > 30 µM
EC50 [17]: > 30 µM
EC50 ([17]; read-out: EC50 at a7 5HT3 Q139K, Avg, sheet 1d, Avg): > 30 µM
EC50 [18]: > 30 µM
EC50 [19]: > 30 µM
EC50 [20]: > 30 µM
EC50 ([20]; read-out: EC50 at α75HT3 L141P, Avg, sheet 1d, Avg): > 30 µM
EC50 [21]: > 30 µM
EC50 [22]: > 30 µM
EC50 [23]: 2.35 µM
EC50 [24]: > 30 µM
EC50 ([24]; read-out: EC50 at a7 5HT3 W77F, sheet 1d, single determinations): > 30 µM
EC50 [25]: > 30 µM
EC50 ([25]; read-out: EC50 at a7 5HT3 Q139L, sheet 1d, single determinations): > 30 µM
EC50 [26]: > 30 µM
EC50 ([26]; read-out: EC50 at a7 5HT3 Q139R, Avg, sheet 1d, Avg): > 30 µM
